Target: CRBN-DDB1 (Homo sapiens (Human), UniProt Q96SW2)
Assay: CRBN-DDB1 fluorescence polarization (FP) binding assay
Details: Table 2 Degrons; displacement of Thalidomide-Alexa Fluor or Pomalidomide-fluorescein probe
Experimental: Measuring compound ligand binding to CRBN-DDB1 was carried out using an established sensitive and quantitative in vitro fluorescence polarization (FP) based binding assay. […] Compounds were dispensed from serially diluted DMSO stock into black 384-well compatible fluorescence polarization plates using an Echo acoustic dispenser. […] Matching control wells excluding CRBN-DDB1 were used to correct for background fluorescence. Plates were read on an Envision plate reader with appropriate FP filter sets.

Sequence of CRBN-DDB1 (Q96SW2 whole entry, looked up): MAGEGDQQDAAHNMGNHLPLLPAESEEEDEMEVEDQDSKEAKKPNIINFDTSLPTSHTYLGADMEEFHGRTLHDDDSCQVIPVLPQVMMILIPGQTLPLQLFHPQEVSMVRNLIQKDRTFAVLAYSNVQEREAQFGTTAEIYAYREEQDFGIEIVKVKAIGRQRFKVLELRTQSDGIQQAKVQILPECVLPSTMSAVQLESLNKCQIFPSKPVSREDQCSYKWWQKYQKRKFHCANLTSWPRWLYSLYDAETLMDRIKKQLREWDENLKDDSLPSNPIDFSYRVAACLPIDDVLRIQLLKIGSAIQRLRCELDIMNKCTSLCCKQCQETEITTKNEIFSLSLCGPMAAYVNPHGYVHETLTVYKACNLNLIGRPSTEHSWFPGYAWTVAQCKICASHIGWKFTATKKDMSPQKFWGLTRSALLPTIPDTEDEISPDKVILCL
Sequence of CRBN-DDB1 (Q16531 whole entry partner, looked up): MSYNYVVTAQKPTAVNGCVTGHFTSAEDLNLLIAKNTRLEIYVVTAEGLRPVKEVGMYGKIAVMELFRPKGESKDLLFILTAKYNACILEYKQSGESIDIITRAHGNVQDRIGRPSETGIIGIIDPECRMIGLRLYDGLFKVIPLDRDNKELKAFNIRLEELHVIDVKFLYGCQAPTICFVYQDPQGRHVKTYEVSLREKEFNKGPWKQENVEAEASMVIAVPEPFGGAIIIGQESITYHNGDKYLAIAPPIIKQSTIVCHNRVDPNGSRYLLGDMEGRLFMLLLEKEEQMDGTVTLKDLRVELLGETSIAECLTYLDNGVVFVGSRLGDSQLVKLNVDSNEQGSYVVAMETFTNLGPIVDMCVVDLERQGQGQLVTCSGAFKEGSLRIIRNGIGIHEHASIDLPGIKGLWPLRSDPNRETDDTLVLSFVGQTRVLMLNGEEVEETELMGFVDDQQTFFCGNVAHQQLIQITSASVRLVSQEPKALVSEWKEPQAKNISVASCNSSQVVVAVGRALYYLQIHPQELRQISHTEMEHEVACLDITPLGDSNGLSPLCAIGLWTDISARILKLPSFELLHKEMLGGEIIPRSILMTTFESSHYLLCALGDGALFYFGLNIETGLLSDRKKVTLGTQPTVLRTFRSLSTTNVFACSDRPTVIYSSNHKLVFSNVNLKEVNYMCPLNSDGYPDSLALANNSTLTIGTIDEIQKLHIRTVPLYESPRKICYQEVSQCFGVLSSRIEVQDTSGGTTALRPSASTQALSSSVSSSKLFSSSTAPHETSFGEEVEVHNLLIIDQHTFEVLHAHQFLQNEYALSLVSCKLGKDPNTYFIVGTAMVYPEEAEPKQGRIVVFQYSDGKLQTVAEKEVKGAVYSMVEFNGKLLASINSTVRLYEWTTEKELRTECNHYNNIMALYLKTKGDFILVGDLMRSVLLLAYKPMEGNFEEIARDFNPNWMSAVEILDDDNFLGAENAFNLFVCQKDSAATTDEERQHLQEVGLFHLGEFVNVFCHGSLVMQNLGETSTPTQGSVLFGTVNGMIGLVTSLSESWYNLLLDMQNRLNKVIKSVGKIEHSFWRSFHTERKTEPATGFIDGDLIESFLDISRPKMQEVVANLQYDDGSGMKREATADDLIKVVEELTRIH

Kd: < 10 µM
SMILES: CC(C)(C)OC(=O)N1CCC(n2cc(CNc3cccc4c3C(=O)N(C3CCC(=O)NC3=O)C4=O)nn2)CC1 (stereo not shown) [Compound 264, tert-Butyl 4-(4-(((2-(2,6-Dioxopiperidin-3-yl)-1,3-dioxoisoindolin-4-yl)amino)methyl)-1H-1,2,3-triazol-1-yl)piperidine-1-carboxylate]

From US20250127903A1, “SUBSTITUTED PIPERIDINE DEGRONIMERS FOR TARGET PROTEIN DEGRADATION” (priority 2016, published 2025)
